Experimental data published in patent US8586755B2, “Substituted nicotinamides as KCNQ2/3 modulators” (Grünenthal GmbH, priority 2009, dated 2013).

Tests used:
[1] = molecular target: T1, KCNQ2/3 channels (Homo sapiens, UniProt O43525+O43526); experiment: Fluorescence assay using a voltage sensitive dye (fluorimetry); format: cell-based; settings: CHO-K1 cells expressing KCNQ2/3 channels; for EC50: agonistic activity; for Emax / Fluorimetry % efficacy (retigabine 50 μM = 100%): retigabine 50 μM = 100%; for Emax: read-out: Fluorimetry % efficacy (retigabine 50 μM = 100%)
T1 construct: expressed in transfected cells
Procedure, shortened: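 Agonist EC50s come from the F2 vs F1 fluorescence comparison, F2 taken at the peak after KCl depolarisation (92 mM final) and F1 after 30 min compound exposure at room temperature. Assay uses KCNQ2/3-expressing CHO-K1 cells stained 45 min with a red voltage-sensitive dye in pH 7.4 ES buffer.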

[2] = tested on: Sprague-Dawley rats; experiment: Low-intensity tail flick in the rat; format: in vivo; settings: for inhibition in vivo at 21.5 mg/kg / inhibition in vivo at 10 mg/kg / inhibition in vivo at 4.64 mg/kg: po, read-out: Low-intensity tail flick rat p.o. % effect (dose [mg/kg])
Description: Low-Intensity Tail Flick in the Rat
The antinociceptive effectiveness of the test substance towards an acute, noxious thermal stimulus was studied in the focal ray (tail flick) test in the rat according to the method of D'Amour and Smith (J. Pharm. Exp. Ther. 72, 74 79 (1941)). Male Sprague-Dawley rats (breeder: Janvier, Le Genest St. Isle, France) weighing from 200 to 250 g were used for this purpose. The animals were accommodated individually in special test compartments and the base of the tail was exposed to the focused ray of an analgesia meter (model 2011, Rhema Labortechnik, Hofheim, Germany). 10 animals were used per group. Before a substance according to the invention was administered, the withdrawal latency (time from switching on of the focal ray to the sudden withdrawal of the tail) was determined twice at an interval of five minutes and the mean value was defined as the control latency time. The intensity of the focal ray was chosen so that the control latency time was 7 to 9 seconds. Measurement of the withdrawal latency was then repeated 10, 20, 30 and 60 minutes after peroral administration of substance. The antinociceptive action of the test substance was determined as the increase in the withdrawal latency time according to the following formula: MPE[%]=[(T1−T0)/(T2−T0)]×100 where: T0=control latency time before administration of substance, T1=latency time after administration of substance, T2=maximum exposure time to the focal ray (30 seconds), MPE=maximum possible effect.
Variance analysis (repeated measures ANOVA) was used to test for statistically significant differences between the substance group and the vehicle group. The level of significance was set at ≦0.05.

Row | SMILES | EC50 [1] [nM] | Emax [1] [%] | inhibition in vivo at 21.5 mg/kg ([2]; dose 21.5 mg/kg, MPE) [%] | inhibition in vivo at 10 mg/kg ([2]; MPE) [%] | inhibition in vivo at 4.64 mg/kg ([2]; MPE) [%] | Fluorimetry % efficacy (retigabine 50 μM = 100%) [1] [%] | Low-intensity tail flick rat p.o. % effect (dose [mg/kg]) ([2]; dose 21.5 mg/kg, MPE) | Low-intensity tail flick rat p.o. ED50 [2]
1 | O=C(NCC1CCCCO1)c1cccnc1SCCCc1ccc(F)cc1 (stereo not drawn) [compound 134, 2-[3-(4-Fluorophenyl)-propylsulfanyl]-N-(tetrahydro-pyran-2-yl-methyl)-pyridine-3-carboxylic acid amide] | 268 | 224 | 40 |  |  |  |  | 
2 | O=C(NCC1CC2CCC1C2)c1cccnc1SCCCc1ccc(C(F)(F)F)c(F)c1 (stereo not drawn) [compound 53, N-(5-Bicyclo[2.2.1]heptanyl-methyl)-2-[3-[3-fluoro-4-(trifluoromethyl)-phenyl]-propylsulfanyl]-pyridine-3-carboxylic acid amide] | 302 | 220 |  | 0 |  |  |  | 
3 | CCCCNC(=O)c1cccnc1SCCC(F)(F)c1ccc(F)cc1 [compound 170, N-Butyl-2-[[3,3-difluoro-3-(4-fluorophenyl)-propyl]sulfanyl]-pyridine-3-carboxylic acid amide] | 24 | 229 |  |  | 20 |  |  | 
4 | O=C(NCC1CC2CCC1C2)c1cccnc1SCCCc1ccc(F)cc1 (stereo not drawn) [compound 51] | 198 |  |  |  |  | 192 | 49 (21.5) % | 
5 | O=C(NCC1CCCCC1)c1cccnc1SCCCc1ccc(F)cc1 [compound 40, N-(Cyclohexyl-methyl)-2-[3-(4-fluorophenyl)-propylsulfanyl]-pyridine-3-carboxylic acid amide] | 129 | 144 | 26 |  |  |  |  | 
6 | O=C(NCC1CC2CCC1C2)c1cccnc1SCCCc1ccc(F)c(C(F)(F)F)c1 (stereo not drawn) [compound 54, N-(5-Bicyclo[2.2.1]heptanyl-methyl)-2-[3-[4-fluoro-3-(trifluoromethyl)-phenyl]-propylsulfanyl]-pyridine-3-carboxylic acid amide] | 133 | 240 |  | 20 |  |  |  | 
7 | CC(C)CCNC(=O)c1cccnc1SCCC(F)(F)c1ccc(F)cc1 [compound 169] | 19 |  |  |  |  | 224 |  | ED50 2.7 mg/kg
8 | O=C(NCC1CC2CCC1C2)c1cccnc1SCCCc1cccc(C(F)(F)F)c1 (stereo not drawn) [compound 27, N-(5-Bicyclo[2.2.1]heptanyl-methyl)-2-[3-[3-(trifluoromethyl)phenyl]-propylsulfanyl]-pyridine-3-carboxylic acid amide] | 85 | 210 |  | 18 |  |  |  | 
9 | O=C(NCC1CCCCO1)c1cccnc1SCCC(F)(F)c1ccc(F)cc1 (stereo not drawn) [compound 180, 2-[[3,3-Difluoro-3-(4-fluorophenyl)-propyl]sulfanyl]-N-(tetrahydro-pyran-2-yl-methyl)-pyridine-3-carboxylic acid amide] | 47 | 224 |  | 64 |  |  |  | 
10 | O=C(NCC1C2CCC1CC2)c1cccnc1SCCC(F)(F)c1ccc(F)cc1 (stereo not drawn) [compound 164, N-(7-Bicyclo[2.2.1]heptanyl-methyl)-2-[[3,3-difluoro-3-(4-fluorophenyl)-propyl]sulfanyl]-pyridine-3-carboxylic acid amide] | 32 | 287 |  |  | 20 |  |  | 
